Numbers after ± are expanded uncertainties.
Test: xn = mol fraction of the nth substance listed
Settings: 100 kPa, Liquid; for viscosity: Concentric cylinders viscometry; for mass density: Vibrating tube method

CCOP(=O)([O-])OCC.CCn1cc[n+](C)c1 [1-ethyl-3-methylimidazolium diethyl phosphate] + O
Settings	mass density [kg/m3]	viscosity [mPa·s]
293.15 K, x2 = 0.012	1151.2 ± 1.2	540 ± 30
293.15 K, x2 = 0.061	1151.7 ± 1.1	513 ± 28
293.15 K, x2 = 0.123	1152.1 ± 1	487 ± 26
293.15 K, x2 = 0.183	1152.4 ± 1	462 ± 25
293.15 K, x2 = 0.259	1153 ± 0.9	422 ± 22
293.15 K, x2 = 0.502	1154.6 ± 0.7	202 ± 10
293.15 K, x2 = 0.765	1150.2 ± 0.6	51.1 ± 2.7
293.15 K, x2 = 0.88	1124 ± 1.7	12.5 ± 0.9
303.15 K, x2 = 0.012	1144.2 ± 1.2	274 ± 15
303.15 K, x2 = 0.061	1144.7 ± 1.1	262 ± 14
303.15 K, x2 = 0.123	1145.2 ± 1	250 ± 14
303.15 K, x2 = 0.183	1145.5 ± 0.9	238 ± 13
303.15 K, x2 = 0.259	1146.1 ± 0.9	219 ± 12
303.15 K, x2 = 0.502	1147.8 ± 0.7	111 ± 6
303.15 K, x2 = 0.765	1143.1 ± 0.6	31.2 ± 1.5
303.15 K, x2 = 0.88	1116.7 ± 1.4	8.35 ± 0.44
313.15 K, x2 = 0.012	1137.4 ± 1.2	154 ± 8
313.15 K, x2 = 0.061	1137.9 ± 1.1	148 ± 7
313.15 K, x2 = 0.123	1138.4 ± 1	141 ± 7
313.15 K, x2 = 0.183	1138.7 ± 0.9	135 ± 7
313.15 K, x2 = 0.259	1139.3 ± 0.9	125 ± 6
313.15 K, x2 = 0.502	1141.1 ± 0.7	65.8 ± 3.1
313.15 K, x2 = 0.765	1135.9 ± 0.6	20.3 ± 1
313.15 K, x2 = 0.88	1109.2 ± 1.4	5.91 ± 0.3
323.15 K, x2 = 0.012	1130.7 ± 1.2	94 ± 4.4
323.15 K, x2 = 0.061	1131.2 ± 1.1	90.2 ± 4.2
323.15 K, x2 = 0.123	1131.7 ± 1	86.4 ± 4
323.15 K, x2 = 0.183	1132 ± 0.9	83.1 ± 3.8
323.15 K, x2 = 0.259	1132.6 ± 0.8	76.5 ± 3.5
323.15 K, x2 = 0.502	1134.3 ± 0.7	40.7 ± 1.8
323.15 K, x2 = 0.765	1128.6 ± 0.6	14 ± 0.6
323.15 K, x2 = 0.88	1101.7 ± 1.3	4.38 ± 0.22
333.15 K, x2 = 0.012	1124.1 ± 1.1	61.2 ± 2.8
333.15 K, x2 = 0.061	1124.6 ± 1.1	58.8 ± 2.6
333.15 K, x2 = 0.123	1125 ± 1	56.2 ± 2.5
333.15 K, x2 = 0.183	1125.4 ± 0.9	54.3 ± 2.4
333.15 K, x2 = 0.259	1126 ± 0.8	49.3 ± 2.2
333.15 K, x2 = 0.502	1127.4 ± 0.7	27.6 ± 1.2
333.15 K, x2 = 0.765	1121.2 ± 0.6	10.1 ± 0.5
333.15 K, x2 = 0.88	1094 ± 1.3	3.36 ± 0.16
343.15 K, x2 = 0.012	1117.5 ± 1.1	42.1 ± 1.9
343.15 K, x2 = 0.061	1118 ± 1.1	40.4 ± 1.8
343.15 K, x2 = 0.123	1118.4 ± 1	38.6 ± 1.7
343.15 K, x2 = 0.183	1118.8 ± 0.9	37.4 ± 1.6
343.15 K, x2 = 0.259	1119.3 ± 0.8	34.1 ± 1.5
343.15 K, x2 = 0.502	1120.5 ± 0.7	19.6 ± 0.8
343.15 K, x2 = 0.765	1113.8 ± 0.6	7.58 ± 0.33
343.15 K, x2 = 0.88	1086.1 ± 1.3	2.67 ± 0.13
353.15 K, x2 = 0.012	1111 ± 1.1	30.2 ± 1.3
353.15 K, x2 = 0.061	1111.5 ± 1.1	29 ± 1.3
353.15 K, x2 = 0.123	1111.9 ± 1	27.7 ± 1.2
353.15 K, x2 = 0.183	1112.1 ± 0.9	26.9 ± 1.2
353.15 K, x2 = 0.259	1112.7 ± 0.8	24.5 ± 1.1
353.15 K, x2 = 0.502	1113.7 ± 0.7	14.4 ± 0.6
353.15 K, x2 = 0.765	1106.3 ± 0.6	5.88 ± 0.25
353.15 K, x2 = 0.88	1078.1 ± 1.3	2.18 ± 0.1
363.15 K, x2 = 0.012	1104.5 ± 1.1	22.5 ± 1
363.15 K, x2 = 0.061	1104.9 ± 1	21.6 ± 0.9
363.15 K, x2 = 0.123	1105.2 ± 1	20.6 ± 0.9
363.15 K, x2 = 0.183	1105.6 ± 0.9	20 ± 0.9
363.15 K, x2 = 0.259	1106.1 ± 0.8	18.3 ± 0.8
363.15 K, x2 = 0.502	1106.8 ± 0.7	11.2 ± 0.5
363.15 K, x2 = 0.765	1098.7 ± 0.6	4.69 ± 0.2
363.15 K, x2 = 0.88	1070 ± 0.8	1.83 ± 0.09
373.15 K, x2 = 0.012	1098.2 ± 1.1	17.3 ± 0.8
373.15 K, x2 = 0.061	1098.5 ± 1	16.5 ± 0.7
373.15 K, x2 = 0.123	1098.9 ± 1	15.8 ± 0.7
373.15 K, x2 = 0.183	1099.1 ± 0.9	15.3 ± 0.7
373.15 K, x2 = 0.259	1099.6 ± 0.8	14.1 ± 0.6
373.15 K, x2 = 0.502	1099.9 ± 0.7	8.9 ± 0.4
373.15 K, x2 = 0.765	1091.2 ± 1	3.83 ± 0.16
373.15 K, x2 = 0.88	1061.9 ± 0.8	1.55 ± 0.08

— the NIST ThermoML archive (doi:10.1021/acs.jced.7b00788)
